Values after ≈ are worked out from the molar mass of the structure shown. Where only a bound is given, the exact number is not on record here.

For the data set the following is noted: buffer; pH 7.4; 200.0 µM.
For the compound `N#CCC(=O)Nc1ccc(C(=O)OCC(=O)NC(=O)NCc2ccco2)cc1`, the kinetic solubility (commonly the concentration staying in solution when a stock, usually in DMSO, is diluted into the medium) came to 17.4 µg/mL (≈ 45.3 µM). With `CC1CC(C)CN(S(=O)(=O)CC23CCC(CC2=O)C3(C)C)C1` (stereo not drawn) the figure was 44.8 µg/mL (≈ 137 µM). With `CC(C(=O)O)c1ccc2c(c1)[nH]c1ccc(Cl)cc12` (stereo not drawn) the figure was > 41.1 µg/mL; with `O=C(O/N=C1/CCCc2occc21)c1ccc(Cl)cc1Cl`, < 0.7 µg/mL. With `COc1ccccc1NS(=O)(=O)c1cc(C(=O)N2CCCCCC2)ccc1C` the figure was 9.6 µg/mL (≈ 23.8 µM). Consider `Cc1ccc(NC(=O)CSc2nc(N)cc(=O)[nH]2)cc1S(=O)(=O)N1CCCCC1`, for which the kinetic solubility came to 46.6 µg/mL (≈ 107 µM). With `O=C(C1CCCCCC1)N1CC[C@@H](N2CCC(O)CC2)[C@H](O)C1` the figure was > 48.7 µg/mL.

`Cc1cccc(N2CCN(C(=O)c3ccc4ccccc4c3)CC2C)c1` (stereo not drawn): the kinetic solubility worked out at 7.4 µg/mL (≈ 21.5 µM).

As for `O=C(O)c1ccc(CN2C(=O)c3ccc(C(=O)O)cc3C2=O)cc1`, the kinetic solubility is > 48.8 µg/mL. With `O=c1[nH]c(/C=C/c2cccc(Br)c2)nc2ccccc12` the figure was < 0.4 µg/mL; with `NC(=O)C1CCCc2c1n(Cc1ccccc1)c1ccccc21` (stereo not drawn), 22.3 µg/mL (≈ 73.3 µM). Regarding `C#CCNC(=O)c1cc2sccc2n1C`, the kinetic solubility worked out at 30.6 µg/mL (≈ 140 µM). With `S=C(NCc1ccco1)NCc1ccccc1Cl` the figure was > 42.1 µg/mL; with `COc1ccc(CCNC(=O)COC(=O)/C=C/c2cccc(F)c2)cc1`, 5.4 µg/mL (≈ 15.1 µM).

In turn, `Cc1ccc(-c2c(C#N)c(N)nc3c2CCCC3)o1` yielded a kinetic solubility of 4.1 µg/mL (≈ 16.2 µM). With `Cc1ccccc1CN(C)C(C)C(=O)Nc1ccccc1F` (stereo not drawn) the figure was 8.1 µg/mL (≈ 27 µM); with `COc1ccc(CN2CCCCCC2)cc1OC`, 21.6 µg/mL (≈ 86.6 µM).

Compound `O=C(NCC1CCCO1)c1cc2cc(Cl)ccc2[nH]1` (stereo not drawn) returned a kinetic solubility of 17 µg/mL (≈ 61 µM). With `CC1CCCCC1NC(=O)Cn1c(=O)cnc2ccccc21` (stereo not drawn) the figure was 5 µg/mL (≈ 16.7 µM). For `O=C(CN1CCC(c2nc3ccccc3s2)CC1)N1CCCCC1`, the solubility (kinetic) is > 51.5 µg/mL.

For `CC(C)Cc1ccc(C(C)NC(=O)c2ccc(=O)[nH]c2)cc1` (stereo not drawn), the solubility (kinetic) was 10 µg/mL (≈ 33.5 µM). With `COc1cc2c(cc1OC)C(c1cccc(Br)c1)NC(=O)C2` (stereo not drawn) the figure was 43 µg/mL (≈ 119 µM); with `O=C(c1ccc(Cl)cc1Cl)N1CCN(c2ccccn2)CC1`, > 50.4 µg/mL. With `CCN(Cc1ccncc1)C(=O)c1ccc2c(c1)S(=O)(=O)c1ccccc1C2=O` the figure was 42 µg/mL (≈ 103 µM); with `CN(C(=O)C1CCN(S(=O)(=O)c2ccccc2[N+](=O)[O-])CC1)C1CCCCC1`, 52.9 µg/mL (≈ 129 µM). With `Br.O=C(O)c1ccccc1CSC1=NCCS1` the figure was > 50.1 µg/mL. Turning to `Cc1ccc(C(=O)NCC(=O)OC2CCCCC2=O)cc1C` (stereo not drawn), the kinetic solubility is > 45.5 µg/mL. With `Cc1nnc(SCC(=O)NC23CC4CC(CC(C4)C2)C3)s1` the figure was > 48.5 µg/mL. The compound `O=C(CSc1ccc(F)cc1)NC12CC3CC(CC(C3)C1)C2` returned a solubility (kinetic) of 1.1 µg/mL (≈ 3.44 µM). The compound `Cc1ccc(NC(=S)N(CCN(C)C)Cc2cccs2)cc1` gave a kinetic solubility of 12.2 µg/mL (≈ 36.6 µM).

`CCN(CC)c1ccc(N=Cc2c(O)[nH]c(=O)[nH]c2=O)cc1` came in with a solubility (kinetic) of 5.8 µg/mL (≈ 19.2 µM). With `N#Cc1c(-c2ccco2)ccn(Cc2ccc(F)cc2)c1=O` the figure was 9 µg/mL (≈ 30.6 µM); with `Cc1ccc(S(=O)(=O)N2CCCC(C(=O)NC3CC3)C2)cc1` (stereo not drawn), 46.2 µg/mL (≈ 143 µM); with `CCOC(=O)C1=C(COC(=O)c2cccnc2SC)NC(=O)NC1C` (stereo not drawn), > 54.8 µg/mL. With `COc1ccccc1CC(=O)N1CCN(S(=O)(=O)c2ccccc2F)CC1` the figure was > 58.9 µg/mL; with `COc1ccccc1CNC(=O)COC(=O)/C=C/c1ccc2c(c1)OCO2`, 5.4 µg/mL (≈ 14.6 µM).

As for `CCOC(=O)c1nc(Nc2ccccc2C)c2ccccc2n1`, the kinetic solubility was > 46.1 µg/mL. With `CCOc1ccc2oc(C(=O)N3CC(C)OC(C)C3)c(C)c2c1` (stereo not drawn) the figure was 41.6 µg/mL (≈ 131 µM); with `NC(=NCCc1ccccc1)NS(=O)(=O)c1ccccc1F`, > 48.2 µg/mL; with `COc1cccc(S(=O)(=O)Nc2ccc3c(c2)OCCO3)c1`, > 48.2 µg/mL.

With `O=C(Cn1cc([N+](=O)[O-])cn1)N1CCN(c2ccccc2)CC1`, the solubility (kinetic) is > 47.3 µg/mL. With `CCN(CC)CCOC(=O)/C=C/c1ccccc1.Cl` the figure was 38.5 µg/mL; with `Cn1c(C2=C(O)CN(c3ccccc3)C2=N)nc2ccccc21`, 44.5 µg/mL (≈ 146 µM). `Cc1ccc(S(=O)(=O)/N=C(/Nc2ccccc2C)c2ccccc2)cc1` displayed a solubility (kinetic) of 39.8 µg/mL (≈ 109 µM). With `COc1ccc(CCNC(=O)c2cc(Cl)nc3ccccc23)cc1` the figure was 5.9 µg/mL (≈ 17.3 µM); with `Cn1cnc([N+](=O)[O-])c1C(=O)Nc1cccc([N+](=O)[O-])c1`, 11.2 µg/mL (≈ 38.5 µM). With `Cc1cc(C)c2c(CN3CCOCC3)cc(=O)oc2c1C` the figure was 26.5 µg/mL (≈ 92.2 µM); with `COc1ccc(N2C(=O)CSC2c2ccc(F)c(F)c2)cc1` (stereo not drawn), > 48.2 µg/mL; with `Cc1cc(C)c(C2=CSC3=NS(=O)(=O)CCN23)c(C)c1`, > 46.3 µg/mL. With `O=C(COc1ccccc1)NCCSCc1ccccc1Cl` the figure was 14.7 µg/mL (≈ 43.8 µM); with `Cc1cc(C)c(S(=O)(=O)c2ccc(C(C)(C)C)cc2)c(Cl)n1`, < 0.7 µg/mL; with `CC(=O)O.Fc1ccc(NC(=S)Nc2cccnc2)cc1`, > 46.1 µg/mL.

Consider `Cc1cccnc1NC(N)=S`, for which the kinetic solubility was > 25.1 µg/mL.

Compound `CCOc1ccc(S(=O)(=O)N2CCCCC2)cc1NC(=O)c1cccnc1OCC` came in with a kinetic solubility of 1.2 µg/mL (≈ 2.77 µM).

`Cc1ccc(C)c(NC(=O)CC2Oc3ccccc3NC2=O)c1` (stereo not drawn) returned a solubility (kinetic) of 1.1 µg/mL (≈ 3.54 µM).

`Cc1cc(C(=O)Nc2ccc3ccccc3c2)c(C)o1` registered a solubility (kinetic) of 1.8 µg/mL (≈ 6.78 µM). With `CC(=O)C1=NOC2C(=O)N(c3ccc(Cl)cc3)C(=O)C12` (stereo not drawn) the figure was > 43.9 µg/mL; with `COc1ccc(N2C(=O)CSC2c2ccccc2[N+](=O)[O-])cc1` (stereo not drawn), 47.7 µg/mL (≈ 144 µM); with `O=C(/C=C/c1cccc(F)c1)OCC(=O)c1ccc[nH]1`, 7.5 µg/mL (≈ 27.4 µM). With `NS(=O)(=O)c1cc2c(cc1Cl)NC=NS2(=O)=O` the figure was > 44.4 µg/mL. With `Cc1cc(C)c(-c2c(O)c3ccccc3n(C)c2=O)c(C)c1` the figure was > 44 µg/mL; with `O=C(C1CC1)N1CCN(Cc2ccccc2)CC1`, 33.5 µg/mL (≈ 137 µM). As for `CC(C)N1CCN(Cc2cccc3nonc23)CC1CCO` (stereo not drawn), the kinetic solubility turned out to be 42.2 µg/mL (≈ 139 µM). As for `CN1CC(C(=O)c2ccc(Cl)cc2)C(c2ccc(N(C)C)cc2)C1` (stereo not drawn), the solubility (kinetic) was found to be 47.1 µg/mL (≈ 137 µM).

`O=C(N/C(=C/c1ccco1)C(=O)N1CCOCC1)c1ccc([N+](=O)[O-])cc1`: the solubility (kinetic) is > 55.7 µg/mL. With `CC(C)(C)c1cc(NC(=O)c2ccco2)no1` the figure was > 35.1 µg/mL; with `O=S1(=O)CC2SC(=S)N(c3ccccc3)C2C1` (stereo not drawn), 1.3 µg/mL (≈ 4.55 µM); with `CC(C)CNC(=O)c1cc(-c2ccc3c(c2)OCO3)on1`, 0.5 µg/mL (≈ 1.73 µM).

On to `NC(=O)c1ccccc1NC(=O)c1ccc2ccccc2c1`, for which the solubility (kinetic) is < 0.3 µg/mL. With `N#Cc1cccc(NS(=O)(=O)c2ccccc2Cl)c1` the figure was > 43.9 µg/mL; with `Cc1ccc(S(=O)(=O)NCc2csc(-c3cccs3)n2)cc1`, 0.7 µg/mL (≈ 2 µM). With `CC(=O)N1CCN(c2nnc(-c3ccccc3)c3ccccc23)CC1` the figure was > 49.9 µg/mL; with `COc1ccccc1Nc1ncccc1[N+](=O)[O-]`, 1.2 µg/mL (≈ 4.89 µM); with `CC1CCCC(NC(=O)CSc2ncccn2)C1C` (stereo not drawn), > 41.9 µg/mL. With `O=C1CC(N2CCSCC2)C(=O)N1c1cccc(Cl)c1` (stereo not drawn), the kinetic solubility is > 46.6 µg/mL. With `Cc1cccc(N2CCN(CC(=O)NCc3ccccc3)CC2)c1C` the figure was 43.6 µg/mL (≈ 129 µM); with `CC(C)(C)OC(=O)N1CCN(C(=O)c2cccnc2Cl)CC1`, > 48.9 µg/mL. With `CCc1nc(SCC(=O)NC2CC2)c2c(C)c(C)sc2n1` the figure was 2.5 µg/mL (≈ 7.78 µM); with `Oc1ccc(-c2csc(Nc3ccccn3)n2)cc1`, 5.3 µg/mL (≈ 19.7 µM); with `NC(=O)c1ccccc1OCC(=O)Nc1cccnc1Cl`, > 45.9 µg/mL. With `CC(OC(=O)c1ccc(NC(N)=O)cc1)C(=O)Nc1ccc2c(c1)OCCO2` (stereo not drawn) the figure was > 57.8 µg/mL.

Compound `COc1cccc(C(=O)O/N=C(\C)c2cnccn2)c1` had a solubility (kinetic) of 30.7 µg/mL (≈ 113 µM). With `CCCCNC(=NCc1cccc(C(F)(F)F)c1)Nc1ccccc1` the figure was 45.7 µg/mL (≈ 131 µM); with `Cn1cc(CCC(=O)NCc2ccc(Cl)cc2)c2ccccc21`, 2.2 µg/mL (≈ 6.73 µM); with `Cc1cc(NC(=O)COC(=O)CNS(=O)(=O)c2c(F)cc(F)cc2Br)no1`, > 70.2 µg/mL. With `N#C/C(=C\c1ccc(F)c(Cl)c1)S(=O)(=O)c1ccccn1` the figure was 44 µg/mL (≈ 136 µM); with `S=C(NCCCn1ccnc1)Nc1cccc(Cl)c1`, > 44.2 µg/mL; with `O=C(CSc1nncs1)Nc1nccs1`, > 38.7 µg/mL. With `O=[N+]([O-])c1ccc(S(=O)(=O)NCCc2ccncc2)cc1` the figure was 12.8 µg/mL (≈ 41.6 µM); with `CN1C(=O)C(=O)N(c2cccc(C(F)(F)F)c2)C1=O`, 39.9 µg/mL (≈ 147 µM). Consider `COc1ccc(C2OCC3(CO2)SC(=O)NC3=O)cc1OC` (stereo not drawn), for which the solubility (kinetic) is 44.8 µg/mL (≈ 138 µM).

Turning to `COCCN(C(=S)Nc1c(C)cccc1C)C(C)c1ccco1` (stereo not drawn), the solubility (kinetic) turned out to be 47.1 µg/mL (≈ 142 µM). With `Cn1c(CNC(=O)OC(C)(C)C)n[nH]c1=S` the figure was > 36.6 µg/mL; with `COC(=O)Nc1nc2ccc(Sc3ccccc3)cc2[nH]1`, 0.9 µg/mL (≈ 3.01 µM).

On to `O=[N+]([O-])c1ccccc1COc1ccc(Cl)c2cccnc12`, for which the kinetic solubility is < 0.3 µg/mL. With `O=C(Oc1ccccc1)N1CCOCC1` the figure was > 31.1 µg/mL. With `Cc1ccc2c(c1)oc(=O)n2CC(=O)c1ccccc1` the figure was 6.5 µg/mL (≈ 24.3 µM); with `Cc1cc(C(=O)OCC(=O)N(C)c2ccccc2)ccc1[N+](=O)[O-]`, 42.1 µg/mL (≈ 128 µM).

For `COc1ccc(CN(C(=O)/C=C/c2ccco2)C2CCS(=O)(=O)C2)cc1` (stereo not drawn), the kinetic solubility came to 44.7 µg/mL (≈ 119 µM). With `O=C(Nc1ccc(Nc2ccccc2)cc1)c1cccc(F)c1` the figure was 0.8 µg/mL (≈ 2.61 µM); with `CC1CCN(Cc2cc(=O)oc3cc4c(cc23)CCCC4)CC1`, < 0.7 µg/mL; with `COCCOc1cc(COC)nc(-c2cccc(C)c2)n1`, 25.3 µg/mL (≈ 87.7 µM). With `CC(C)(ONC(=O)Nc1ccccc1Cl)C(=O)O` the figure was > 40.9 µg/mL.
